From US20220119354A1, “DIAMINO-SUBSTITUTED PYRIDINES AND PYRIMIDINES AS HERBICIDES” (FMC Corporation, priority 2019, published 2022)

Experiments:
Assay type in all cases: in vivo
[1] = test system: ryegrass, Italian (Lolium multiflorum); assay: Test A postemergence, Italian ryegrass; conditions: 0 to 100 scale
Outline: (§1)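 Greenhouse pot test, loam/sand soil. Pre: directed soil spray at planting; post: foliar spray at 1–2 leaf stage (2–10 cm). Chemical in non-phytotoxic solvent + surfactant. Visual rating ~10 d, 0 = no effect, 100 = complete control.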

[2] = test system: pigweed (Amaranthus retroflexus); assay: Test A postemergence, pigweed; conditions: 0 to 100 scale
Outline: as §1

[3] = test system: kochia (Kochia scoparia); assay: Test A postemergence, kochia; conditions: 0 to 100 scale
Outline: as §1

[4] = test system: foxtail, giant (Setaria faberii); assay: Test A postemergence, giant foxtail; conditions: 0 to 100 scale
Outline: as §1

[5] = test system: barnyardgrass (Echinochloa crus-galli); assay: Test A preemergence, barnyardgrass; conditions: 0 to 100 scale
Outline: as §1

[6] = test system: wheat (Triticum aestivum); assay: Test A postemergence, wheat; conditions: 0 to 100 scale
Outline: as §1

[7] = test system: blackgrass (Alopecurus myosuroides); assay: Test A postemergence, blackgrass; conditions: 0 to 100 scale
Outline: as §1

[8] = test system: ragweed (common ragweed, Ambrosia elatior); assay: Test A postemergence, ragweed; conditions: 0 to 100 scale
Outline: as §1

[9] = test system: galium (catchweed bedstraw, Galium aparine); assay: Test A postemergence, galium; conditions: 0 to 100 scale
Outline: as §1

[10] = test system: corn (Zea mays); assay: Test A postemergence, corn; conditions: 0 to 100 scale
Outline: as §1

[11] = test system: ragweed (common ragweed, Ambrosia elatior); assay: Test A preemergence, ragweed; conditions: 0 to 100 scale
Outline: as §1

[12] = test system: ducksalad (Heteranthera limosa); assay: Test B flooded paddy test, ducksalad; conditions: Flood, 250 g ai/ha, applied to paddy water, 2-leaf stage, visual evaluation after 13 to 15 d
Outline: (§2)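 Growth to two leaves preceded treatment. Flooding to 3 cm above soil surface, then water-applied compound; depth kept constant. Scored visually relative to controls after 13–15 d greenhouse; 100 means full control.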

[13] = test system: barnyardgrass (Echinochloa crus-galli); assay: Test B flooded paddy test, barnyardgrass; conditions: Flood, 250 g ai/ha, applied to paddy water, 2-leaf stage, visual evaluation after 13 to 15 d
Outline: as §2

[14] = test system: kochia (Kochia scoparia); assay: Test A preemergence, kochia; conditions: 0 to 100 scale
Outline: as §1

[15] = test system: ryegrass, Italian (Lolium multiflorum); assay: Test A preemergence, Italian ryegrass; conditions: 0 to 100 scale
Outline: as §1

[16] = test system: pigweed (Amaranthus retroflexus); assay: Test A preemergence, pigweed; conditions: 0 to 100 scale
Outline: as §1

[17] = test system: foxtail, giant (Setaria faberii); assay: Test A preemergence, giant foxtail; conditions: 0 to 100 scale
Outline: as §1

[18] = test system: rice (Oryza sativa); assay: Test B flooded paddy test, rice; conditions: Flood, 250 g ai/ha, applied to paddy water, 2-leaf stage, visual evaluation after 13 to 15 d
Outline: as §2

[19] = test system: sedge, umbrella (small-flower umbrella sedge, Cyperus difformis); assay: Test B flooded paddy test, umbrella sedge; conditions: Flood, 250 g ai/ha, applied to paddy water, 2-leaf stage, visual evaluation after 13 to 15 d
Outline: as §2

[20] = test system: barnyardgrass (Echinochloa crus-galli); assay: Test A postemergence, barnyardgrass; conditions: 0 to 100 scale
Outline: as §1

## C[C@@H](Nc1ncc(C(F)(F)F)c(N)n1)c1cc2ccccc2o1 [Compound 22, N2-[(1R)-1-(2-benzofuranyl)ethyl]-5-(trifluoromethyl)-2,4-pyrimidinediamine]
[1]; Lolium multiflorum, post-emergence, 240 h, 1000 g ai/ha, read-out: Plant response rating, Ryegrass, Italian
  pest or weed control at 1000 g/ha: 100%
[2]; Amaranthus retroflexus, post-emergence, 240 h, 1000 g ai/ha, read-out: Plant response rating, Pigweed
  pest or weed control at 1000 g/ha: 100%
[3]; Bassia scoparia, post-emergence, 240 h, 1000 g ai/ha, read-out: Plant response rating, Kochia
  pest or weed control at 1000 g/ha: 80%
[4]; Setaria faberi, post-emergence, 240 h, 1000 g ai/ha, read-out: Plant response rating, Foxtail, Giant
  pest or weed control at 1000 g/ha: 90%
[5]; 1000 g ai/ha
  Plant response rating, Barnyardgrass: 100
[6]; Triticum aestivum, post-emergence, 240 h, 1000 g ai/ha, read-out: Plant response rating, Wheat
  plant injury at 1000 g/ha: 40%
[7]; Alopecurus myosuroides, post-emergence, 240 h, 1000 g ai/ha, read-out: Plant response rating, Blackgrass
  pest or weed control at 1000 g/ha: 90%
[8]; Ambrosia artemisiifolia, post-emergence, 240 h, 1000 g ai/ha, read-out: Plant response rating, Ragweed
  pest or weed control at 1000 g/ha: 80%
[9]; Galium, post-emergence, 240 h, 1000 g ai/ha, read-out: Plant response rating, Galium
  pest or weed control at 1000 g/ha: 90%
[10]; Zea mays, post-emergence, 240 h, 1000 g ai/ha
  Corn plant response rating (crop injury, 0 = no effect, 100 = complete kill) at 1000 g/ha: 100%
[11]; 1000 g ai/ha
  Plant response rating, Ragweed: 100
[12]; Heteranthera limosa, 360 h, read-out: Plant response rating, Ducksalad (0 to 100 scale, 0 is no effect, 100 is complete control)
  pest or weed control at 250 g/ha: 100%
[13]; Echinochloa crus-galli, 360 h, read-out: Plant response rating, Barnyardgrass (0 to 100 scale, 0 is no effect, 100 is complete control)
  pest or weed control at 250 g/ha: 40%
[14]; 1000 g ai/ha
  Plant response rating, Kochia: 100
[15]; 1000 g ai/ha
  Plant response rating, Ryegrass, Italian: 100
[16]; 1000 g ai/ha
  Plant response rating, Pigweed: 100
[17]; 1000 g ai/ha
  Plant response rating, Foxtail, Giant: 100
[18]; Oryza sativa, 360 h, read-out: Plant response rating, Rice (0 to 100 scale, 0 is no effect, 100 is complete control)
  plant injury at 250 g/ha: 0%
[19]; Cyperus difformis, 360 h, read-out: Plant response rating, Sedge, Umbrella (0 to 100 scale, 0 is no effect, 100 is complete control)
  pest or weed control at 250 g/ha: 95%
[20]; Echinochloa crus-galli, post-emergence, 240 h, 1000 g ai/ha, 0 no effect, 100 complete control, read-out: Plant response rating, Barnyardgrass
  pest or weed control at 1000 g/ha: 100%

## C[C@@H](Nc1ncc(C(F)(F)F)c(N)n1)c1ccc2ccccc2c1 [Compound 1]
[1]; 125 g ai/ha
  Plant response rating, Ryegrass, Italian: 0
[1]; 500 g ai/ha
  Plant response rating, Ryegrass, Italian: 20
[2]; 125 g ai/ha
  Plant response rating, Pigweed: 80
[2]; 500 g ai/ha
  Plant response rating, Pigweed: 100
[3]; 125 g ai/ha
  Plant response rating, Kochia: 0
[3]; 500 g ai/ha
  Plant response rating, Kochia: 50
[4]; 125 g ai/ha
  Plant response rating, Foxtail, Giant: 0
[4]; 500 g ai/ha
  Plant response rating, Foxtail, Giant: 0
[5]; 125 g ai/ha
  Plant response rating, Barnyardgrass: 0
[5]; 500 g ai/ha
  Plant response rating, Barnyardgrass: 0
[6]; 125 g ai/ha
  Plant response rating, Wheat: 0
[6]; 500 g ai/ha
  Plant response rating, Wheat: 0
[7]; 125 g ai/ha
  Plant response rating, Blackgrass: 0
[7]; 500 g ai/ha
  Plant response rating, Blackgrass: 0
[8]; 125 g ai/ha
  Plant response rating, Ragweed: 0
[8]; 500 g ai/ha
  Plant response rating, Ragweed: 50
[9]; 125 g ai/ha
  Plant response rating, Galium: 30
[9]; 500 g ai/ha
  Plant response rating, Galium: 70
[10]; 125 g ai/ha
  Plant response rating, Corn: 0
[10]; 500 g ai/ha
  Plant response rating, Corn: 0
[11]; 125 g ai/ha
  Plant response rating, Ragweed: 0
[11]; 500 g ai/ha
  Plant response rating, Ragweed: 0
[12]
  Plant response rating, Ducksalad (0 to 100 scale, 0 is no effect, 100 is complete control): 0
[13]
  Plant response rating, Barnyardgrass (0 to 100 scale, 0 is no effect, 100 is complete control): 0
[14]; 125 g ai/ha
  Plant response rating, Kochia: 0
[14]; 500 g ai/ha
  Plant response rating, Kochia: 10
[15]; 125 g ai/ha
  Plant response rating, Ryegrass, Italian: 0
[15]; 500 g ai/ha
  Plant response rating, Ryegrass, Italian: 0
[16]; 125 g ai/ha
  Plant response rating, Pigweed: 10
[16]; 500 g ai/ha
  Plant response rating, Pigweed: 90
[17]; 125 g ai/ha
  Plant response rating, Foxtail, Giant: 0
[17]; 500 g ai/ha
  Plant response rating, Foxtail, Giant: 30
[18]
  Plant response rating, Rice (0 to 100 scale, 0 is no effect, 100 is complete control): 0
[19]
  Plant response rating, Sedge, Umbrella (0 to 100 scale, 0 is no effect, 100 is complete control): 0
[20]; 125 g ai/ha
  Plant response rating, Barnyardgrass: 0
[20]; 500 g ai/ha
  Plant response rating, Barnyardgrass: 0
